Reference: patent publication US8877759B2, “Aminopyrazines as ATR kinase inhibitors” (Vertex Pharnaceuticals Incorporated, priority 2011, dated 2014)

These compounds were tested against T1, full-length ATR (Homo sapiens, UniProt Q13535) (assay: ATR Inhibition Assay (radioactive-phosphate incorporation)). Conditions: not given.
T1 construct: Assays were carried out at 25° C. in the presence of 5 nM full-length ATR
Assay type: biochemical
Method: Compounds were screened for their ability to inhibit ATR kinase using a radioactive-phosphate incorporation assay. Assays were carried out in a mixture of 50 mM Tris/HCl (pH 7.5), 10 mM MgCl2 and 1 mM DTT.
Assays were carried out at 25° C. in the presence of 5 nM full-length ATR. An assay stock buffer solution was prepared containing all of the reagents listed above, with the exception of ATP and the test compound of interest. […] The plate was pre-incubated for 10 minutes at 25° C. and the reaction initiated by addition of 15 μL [γ-33P]ATP (final concentration 10 μM).
The reaction was stopped after […] by the addition of 30 μL 0.1M phosphoric acid containing 2 mM ATP. A multiscreen phosphocellulose filter 96-well plate (Millipore, Cat no. MAPHN0B50) was pretreated with 100 μL 0.2M phosphoric acid prior to the addition of 45 μL of the stopped assay mixture. The plate was washed with 5×200 μL 0.2M phosphoric acid.
After removing mean background values for all of the data points, Ki(app) data were calculated from non-linear regression analysis of the initial rate data using the Prism software package (GraphPad Prism version 3.0cx for Macintosh, GraphPad Software, San Diego Calif., USA).

T1 sequence (Q13535 whole entry): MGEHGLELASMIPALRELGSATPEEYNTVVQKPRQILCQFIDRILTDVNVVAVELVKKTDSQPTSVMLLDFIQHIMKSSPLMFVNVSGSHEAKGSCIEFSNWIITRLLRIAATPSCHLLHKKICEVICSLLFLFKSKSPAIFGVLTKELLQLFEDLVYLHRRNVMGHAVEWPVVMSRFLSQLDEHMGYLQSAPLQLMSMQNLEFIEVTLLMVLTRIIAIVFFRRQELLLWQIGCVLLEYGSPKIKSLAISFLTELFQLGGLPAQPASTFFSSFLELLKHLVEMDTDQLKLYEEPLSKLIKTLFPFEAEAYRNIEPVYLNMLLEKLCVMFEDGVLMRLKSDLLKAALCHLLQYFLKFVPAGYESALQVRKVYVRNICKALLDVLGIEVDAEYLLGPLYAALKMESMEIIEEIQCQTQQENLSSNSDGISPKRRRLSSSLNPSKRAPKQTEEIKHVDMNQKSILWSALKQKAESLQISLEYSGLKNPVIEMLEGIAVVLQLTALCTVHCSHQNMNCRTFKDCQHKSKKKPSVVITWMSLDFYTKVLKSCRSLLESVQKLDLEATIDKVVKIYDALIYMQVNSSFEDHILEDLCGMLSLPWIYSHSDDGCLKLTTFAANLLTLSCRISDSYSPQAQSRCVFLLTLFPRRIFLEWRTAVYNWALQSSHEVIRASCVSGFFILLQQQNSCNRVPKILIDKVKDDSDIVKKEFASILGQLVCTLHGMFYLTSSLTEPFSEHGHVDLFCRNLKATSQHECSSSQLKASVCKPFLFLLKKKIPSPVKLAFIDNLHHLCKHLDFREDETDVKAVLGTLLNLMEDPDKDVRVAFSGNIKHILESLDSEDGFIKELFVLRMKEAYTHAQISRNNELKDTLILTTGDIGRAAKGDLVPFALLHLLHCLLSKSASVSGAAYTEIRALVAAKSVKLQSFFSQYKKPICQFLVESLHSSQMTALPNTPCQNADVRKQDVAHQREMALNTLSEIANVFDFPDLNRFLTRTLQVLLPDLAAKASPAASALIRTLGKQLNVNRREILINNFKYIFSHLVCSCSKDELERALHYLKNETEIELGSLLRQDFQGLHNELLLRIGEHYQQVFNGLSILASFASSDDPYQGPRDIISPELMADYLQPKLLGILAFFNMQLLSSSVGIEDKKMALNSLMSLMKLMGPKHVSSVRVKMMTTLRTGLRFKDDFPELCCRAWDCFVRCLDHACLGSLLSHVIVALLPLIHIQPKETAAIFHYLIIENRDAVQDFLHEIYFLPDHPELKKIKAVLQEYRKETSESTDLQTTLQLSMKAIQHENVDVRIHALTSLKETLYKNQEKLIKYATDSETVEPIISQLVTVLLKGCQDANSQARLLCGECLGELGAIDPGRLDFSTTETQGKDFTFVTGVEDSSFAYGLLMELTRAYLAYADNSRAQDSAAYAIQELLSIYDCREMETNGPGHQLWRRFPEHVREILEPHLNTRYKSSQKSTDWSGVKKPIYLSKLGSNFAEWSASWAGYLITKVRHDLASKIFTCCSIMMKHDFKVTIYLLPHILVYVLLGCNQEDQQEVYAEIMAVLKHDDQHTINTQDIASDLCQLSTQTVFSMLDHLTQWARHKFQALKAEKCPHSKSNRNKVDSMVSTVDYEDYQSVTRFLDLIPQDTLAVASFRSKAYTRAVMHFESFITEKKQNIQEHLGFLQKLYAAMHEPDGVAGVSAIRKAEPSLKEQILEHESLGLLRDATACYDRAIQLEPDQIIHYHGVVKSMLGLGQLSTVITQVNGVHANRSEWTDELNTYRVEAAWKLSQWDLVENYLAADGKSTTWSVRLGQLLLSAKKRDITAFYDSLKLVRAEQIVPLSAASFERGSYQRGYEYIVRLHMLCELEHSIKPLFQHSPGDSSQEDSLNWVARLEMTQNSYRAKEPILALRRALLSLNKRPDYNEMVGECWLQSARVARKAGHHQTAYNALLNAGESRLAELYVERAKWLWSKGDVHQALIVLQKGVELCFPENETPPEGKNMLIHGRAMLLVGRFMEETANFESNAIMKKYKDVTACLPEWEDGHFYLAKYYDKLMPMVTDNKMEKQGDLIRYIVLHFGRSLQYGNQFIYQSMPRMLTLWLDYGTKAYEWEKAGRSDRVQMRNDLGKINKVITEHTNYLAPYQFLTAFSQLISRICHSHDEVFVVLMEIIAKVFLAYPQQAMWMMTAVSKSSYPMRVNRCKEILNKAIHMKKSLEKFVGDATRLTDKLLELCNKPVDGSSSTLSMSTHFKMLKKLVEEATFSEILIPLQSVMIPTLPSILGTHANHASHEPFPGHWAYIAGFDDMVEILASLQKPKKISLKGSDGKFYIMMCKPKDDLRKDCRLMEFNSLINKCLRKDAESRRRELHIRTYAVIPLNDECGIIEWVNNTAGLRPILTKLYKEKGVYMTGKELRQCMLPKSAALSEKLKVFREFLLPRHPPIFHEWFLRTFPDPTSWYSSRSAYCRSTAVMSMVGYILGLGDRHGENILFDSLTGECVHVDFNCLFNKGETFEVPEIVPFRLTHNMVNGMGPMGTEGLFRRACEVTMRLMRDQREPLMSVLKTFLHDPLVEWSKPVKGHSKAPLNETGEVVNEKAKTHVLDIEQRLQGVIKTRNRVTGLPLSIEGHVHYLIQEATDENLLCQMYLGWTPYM

| Structure (SMILES) | Ki [nM] |
| --- | --- |
| N#CC1(c2cc(-c3cnc(N)c(-c4cc(-c5ccc(CN[C@H]6CCOC6)cc5)no4)n3)ccn2)CC1 [Compound I-34, 1-[4-[5-amino-6-[3-[4-[[[(3S)-tetrahydrofuran-3-yl]amino]methyl]phenyl]isoxazol-5-yl]pyrazin-2-yl]-2-pyridyl]cyclopropanecarbonitrile] | < 1 |
| N#CC1(c2cc(-c3cnc(N)c(-c4cc(-c5ccc(CN[C@H]6CCOC6)cc5)no4)n3)ccn2)CCC1 [Compound I-35, 1-[4-[5-amino-6-[3-[4-[[[(3S)-tetrahydrofuran-3-yl]amino]methyl]phenyl]isoxazol-5-yl]pyrazin-2-yl]-2-pyridyl]cyclobutanecarbonitrile] | < 1 |
| N#CC1(c2cc(-c3cnc(N)c(-c4cc(-c5ccc(CN[C@H]6CCOC6)cc5)no4)n3)ccn2)CCCC1 [Compound I-36, 1-[4-[5-amino-6-[3-[4-[[[(3S)-tetrahydrofuran-3-yl]amino]methyl]phenyl]isoxazol-5-yl]pyrazin-2-yl]-2-pyridyl]cyclopentanecarbonitrile] | < 1 |
| CN1CCCC(C#N)(c2cc(-c3cnc(N)c(-c4cc(-c5ccccc5)no4)n3)ccn2)C1 (stereo not shown) [Compound I-37, 3-[4-[5-amino-6-(3-phenylisoxazol-5-yl)pyrazin-2-yl]-2-pyridyl]-1-methyl-piperidine-3-carbonitrile] | < 1 |
| COCCNC(=O)C(C)(C)c1cc(-c2cnc(N)c(-c3cc(-c4ccccc4)no3)n2)ccn1 [Compound I-38, 2-[4-[5-amino-6-(3-phenylisoxazol-5-yl)pyrazin-2-yl]-2-pyridyl]-N-(2-methoxyethyl)-2-methyl-propanamide] | 5 to 20 |
| CC(C)(C#N)c1cc(-c2cnc(N)c(-c3cc(-c4ccc(C5CNCCN5)cc4)no3)n2)ccn1 (stereo not shown) [Compound I-41, 2-[4-[5-amino-6-[3-(4-piperazin-2-ylphenyl)isoxazol-5-yl]pyrazin-2-yl]-2-pyridyl]-2-methyl-propanenitrile] | < 1 |

Continued, values first:

| Ki [nM] | Structure (SMILES) |
| --- | --- |
| < 1 | N#CC1(c2cc(-c3cnc(N)c(-c4cc(-c5ccc(CN[C@H]6CCOC6)cc5)no4)n3)ccn2)CCOCC1 [Compound I-42, 4-[4-[5-amino-6-[3-[4-[[[(3S)-tetrahydrofuran-3-yl]amino]methyl]phenyl]isoxazol-5-yl]pyrazin-2-yl]-2-pyridyl]tetrahydropyran-4-carbonitrile] |
| < 1 | C[C@H](N)c1ccc(-c2nnc(-c3nc(-c4ccnc(C5(C#N)CCC5)c4)cnc3N)o2)cc1 [Compound I-43, 1-[4-[5-amino-6-[5-[4-[(1S)-1-aminoethyl]phenyl]-1,3,4-oxadiazol-2-yl]pyrazin-2-yl]-2-pyridyl]cyclobutanecarbonitrile] |
| < 1 | C[C@H](N)c1ccc(-c2nnc(-c3nc(-c4ccnc(C(C)(C)C#N)c4)cnc3N)o2)cc1 [Compound I-44, 2-[4-[5-amino-6-[5-[4-[(1S)-1-aminoethyl]phenyl]-1,3,4-oxadiazol-2-yl]pyrazin-2-yl]-2-pyridyl]-2-methyl-propanenitrile] |
| < 1 | CC(C)(C(=O)NCCO)c1cc(-c2cnc(N)c(-c3cc(-c4ccccc4)no3)n2)ccn1 [Compound I-46, 2-[4-[5-amino-6-(3-phenylisoxazol-5-yl)pyrazin-2-yl]-2-pyridyl]-N-(2-hydroxyethyl)-2-methyl-propanamide] |
| 5 to 20 | CC(C)(C(=O)N1CCC1)c1cc(-c2cnc(N)c(-c3cc(-c4ccccc4)no3)n2)ccn1 [Compound I-47, 2-[4-[5-amino-6-(3-phenylisoxazol-5-yl)pyrazin-2-yl]-2-pyridyl]-1-(azetidin-1-yl)-2-methyl-propan-1-one] |
| < 1 | CC(C)(C#N)c1cc(-c2cnc(N)c(-c3cc(-c4ccc(CNC5CC5)cc4)no3)n2)ccn1 [Compound I-48, 2-[4-[5-amino-6-[3-[4-[(cyclopropylamino)methyl]phenyl]isoxazol-5-yl]pyrazin-2-yl]-2-pyridyl]-2-methyl-propanenitrile] |
| < 1 | CNCc1ccc(-c2cc(-c3nc(-c4ccnc(C(C)C#N)c4)cnc3N)on2)cc1 (stereo not shown) [Compound I-49, 2-[4-[5-amino-6-[3-[4-(methylaminomethyl)phenyl]isoxazol-5-yl]pyrazin-2-yl]-2-pyridyl]propanenitrile] |
| < 1 | CC(C#N)c1cc(-c2cnc(N)c(-c3cc(-c4ccccc4)no3)n2)ccn1 (stereo not shown) [Compound I-50, 2-[4-[5-amino-6-(3-phenylisoxazol-5-yl)pyrazin-2-yl]-2-pyridyl]propanenitrile] |
| < 1 | CC(C)(C#N)c1cc(-c2cnc(N)c(-c3cc(-c4ccc(O)cc4)no3)n2)ccn1 [Compound I-51, 2-[4-[5-amino-6-[3-(4-hydroxyphenyl)isoxazol-5-yl]pyrazin-2-yl]-2-pyridyl]-2-methyl-propanenitrile] |

Same assay, conditions: Ki(app); 5 nM full-length ATR, 10 μM [γ-33P]ATP, 800 μM target peptide, 25° C.

| Structure (SMILES) | ATR Ki |
| --- | --- |
| N#CC1(c2cc(-c3cnc(N)c(-c4cc(-c5ccc(CO)cc5)no4)n3)ccn2)CCNCC1 [Compound I-31, 4-[4-[5-amino-6-[3-[4-(hydroxymethyl)phenyl]isoxazol-5-yl]pyrazin-2-yl]-2-pyridyl]piperidine-4-carbonitrile] | +++ (Compounds with a Ki value >5 nM but ≦1 nM are marked with “+++.”) |
| N#CC1(c2cc(-c3cnc(N)c(-c4cc(-c5ccc(O)cc5)no4)n3)ccn2)CCNCC1 [Compound I-32, 4-[4-[5-amino-6-[3-(4-hydroxyphenyl)isoxazol-5-yl]pyrazin-2-yl]-2-pyridyl]piperidine-4-carbonitrile] | +++ (Compounds with a Ki value >5 nM but ≦1 nM are marked with “+++.”) |
| N#CC1(c2cc(-c3cnc(N)c(-c4cc(-c5ccc6[nH]ccc6c5)no4)n3)ccn2)CCNCC1 [Compound I-33, 4-[4-[5-amino-6-[3-(1H-indol-5-yl)isoxazol-5-yl]pyrazin-2-yl]-2-pyridyl]piperidine-4-carbonitrile] | +++ (Compounds with a Ki value >5 nM but ≦1 nM are marked with “+++.”) |
| CN(C)C(=O)C(C)(C)c1cc(-c2cnc(N)c(-c3cc(-c4ccccc4)no3)n2)ccn1 [Compound I-39, 2-[4-[5-amino-6-(3-phenylisoxazol-5-yl)pyrazin-2-yl]-2-pyridyl]-N,N,2-trimethyl-propanamide] | +++ (Compounds with a Ki value >5 nM but ≦1 nM are marked with “+++.”) |
| CC(C)(C(=O)NCCCN)c1cc(-c2cnc(N)c(-c3cc(-c4ccccc4)no3)n2)ccn1 [Compound I-40, 2-[4-[5-amino-6-(3-phenylisoxazol-5-yl)pyrazin-2-yl]-2-pyridyl]-N-(3-aminopropyl)-2-methyl-propanamide] | +++ (Compounds with a Ki value >5 nM but ≦1 nM are marked with “+++.”) |
| CC(C)(C(N)=O)c1cc(-c2cnc(N)c(-c3cc(-c4ccccc4)no3)n2)ccn1 [Compound I-45, 2-[4-[5-amino-6-(3-phenylisoxazol-5-yl)pyrazin-2-yl]-2-pyridyl]-2-methyl-propanamide] | +++ (Compounds with a Ki value >5 nM but ≦1 nM are marked with “+++.”) |
| CC(C)(C#N)c1cc(-c2cnc(N)c(-c3nnc(-c4ccc5c(c4)CCNC5)o3)n2)ccn1 [Compound I-52, 2-[4-[5-amino-6-[5-(1,2,3,4-tetrahydroisoquinolin-6-yl)-1,3,4-oxadiazol-2-yl]pyrazin-2-yl]-2-pyridyl]-2-methyl-propanenitrile] | +++ (Compounds with a Ki value >5 nM but ≦1 nM are marked with “+++.”) |
